Data as given in patent publication US8148373B2, “Compounds” (AstraZeneca AB, priority 2008, dated 2012).

Assays:
[1] = biological target: T1, human muscarinic acetylcholine M3 receptor (M3-ACh) (Homo sapiens, UniProt P20309); assay: Muscarinic 3 Receptor Binding Assay ([3H]NMS competition, SPA); details: [3H]NMS 0.1 nM, CHO-K1 cell membranes, 16 hours at room temperature; read-out: M3 pIC50 (converted)
T1 construct: expressed in transfected cells; host or cells: CHO-K1 (Chinese Hamster Ovary) cell membranes
Description: Muscarinic 3 Receptor Binding Assay
The affinity (pIC50) of compounds binding to the M3 receptor is determined by competition binding of [^3H]N-methyl scopolamine (NMS) to CHO-K1 (Chinese Hamster Ovary) cell membranes expressing the human muscarinic acetylcholine M3 receptor (M3-ACh) in a scintillation proximity assay (SPA) format.
SPA beads are precoated with membranes and then incubated at 2 mg of beads per well with serial dilutions of compounds of the invention, [^3H]NMS at 0.1 nM, quarter Kd (experimentally determined dissociation constant) and assay buffer (20 mM HEPES pH 7.4 containing 5 mM MgCl2). The assay is conducted in a final volume of 200 μL, in the presence of 1% (v/v) dimethyl sulphoxide (DMSO). Total binding of [^3H]NMS is determined in the absence of competing compound and non-specific binding of [^3H]NMS is determined in the presence of 1 μM atropine. The plates are incubated for 16 hours at room temperature and then read on Wallac Microbeta™ using a normalised ^3H protocol. The pIC50, defined as the negative logarithm of the molar concentration of compound required for 50% reduction in specific [^3H]-NMS binding, is determined.

[2] = biological target: T2, Adrenergic β2 (H292 cells) (Homo sapiens, UniProt P07550); assay: Assay for Adrenergic β2 Mediated cAMP Production (concentration response, AlphaScreen cAMP detection); assay type: cell-based; details: for EC50: cAMP production, 60 minutes at room temperature, 300 μM rolipram, read-out: β2 pEC50 (converted); for β2 Intrinsic activity: fraction relative to the maximum activity determined for formoterol
T2 construct: endogenous in cells; host or cells: H292 cells
Description: Assay for Adrenergic β2 Mediated Camp Production
H292 cells are grown in 225 cm2 flasks incubator at 37° C., 5% CO2 in RPMI medium containing 10% (v/v) FBS (foetal bovine serum) and 2 mM L-glutamine.
Adherent H292 cells are removed from tissue culture flasks by treatment with Accutase™ cell detachment solution for 15 minutes. Flasks are incubated for 15 minutes in a humidified incubator at 37° C., 5% CO2. Detached cells are re-suspended in RPMI media (containing 10% (v/v) FBS and 2 mM L-glutamine) at 0.1×10^6 cells per mL. 10000 cells in 100 μL are added to each well of a tissue-culture-treated 96-well plate and the cells incubated overnight in a humidified incubator at 37° C., 5% CO2. The culture media is removed and cells are washed twice with 100 μL assay buffer and replaced with 50 μL assay buffer (HBSS solution containing 10 mM HEPES pH7.4 and 5 mM glucose). Cells are rested at room temperature for 20 minutes after which time 25 μL of rolipram (1.2 mM made up in assay buffer containing 2.4% (v/v) dimethylsulphoxide) is added. Cells are incubated with rolipram for 10 minutes after which time test compounds are added and the cells are incubated for 60 minutes at room temperature. The final rolipram concentration in the assay is 300 μM and final vehicle concentration is 1% (v/v) dimethylsulphoxide. The reaction is stopped by removing supernatants, washing once with 100 μL assay buffer and replacing with 50 μL lysis buffer. The cell monolayer is frozen at −80° C. for 30 minutes (or overnight).
AlphaScreen™ cAMP Detection
The concentration of cAMP (cyclic adenosine monophosphate) in the cell lysate is determined using AlphaScreen™ methodology. The frozen cell plate is thawed for 20 minutes on a plate shaker then 10 μL of the cell lysate is transferred to a 96-well white plate. 40 μL of mixed AlphaScreen™ detection beads pre-incubated with biotinylated cAMP, is added to each well and the plate incubated at room temperature for 3 hours in the dark. The AlphaScreen™ signal is measured using an EnVision spectrophotometer (Perkin-Elmer Inc.) with the recommended manufacturer's settings. cAMP concentrations are determined by reference to a calibration curve determined in the same experiment using standard cAMP concentrations. Concentration response curves for agonists are constructed and data is fitted to a four parameter logistic equation to determine both the pEC50 and Intrinsic Activity. Intrinsic Activity is expressed as a fraction relative to the maximum activity determined for formoterol in each experiment.

T1 sequence (P20309 whole entry): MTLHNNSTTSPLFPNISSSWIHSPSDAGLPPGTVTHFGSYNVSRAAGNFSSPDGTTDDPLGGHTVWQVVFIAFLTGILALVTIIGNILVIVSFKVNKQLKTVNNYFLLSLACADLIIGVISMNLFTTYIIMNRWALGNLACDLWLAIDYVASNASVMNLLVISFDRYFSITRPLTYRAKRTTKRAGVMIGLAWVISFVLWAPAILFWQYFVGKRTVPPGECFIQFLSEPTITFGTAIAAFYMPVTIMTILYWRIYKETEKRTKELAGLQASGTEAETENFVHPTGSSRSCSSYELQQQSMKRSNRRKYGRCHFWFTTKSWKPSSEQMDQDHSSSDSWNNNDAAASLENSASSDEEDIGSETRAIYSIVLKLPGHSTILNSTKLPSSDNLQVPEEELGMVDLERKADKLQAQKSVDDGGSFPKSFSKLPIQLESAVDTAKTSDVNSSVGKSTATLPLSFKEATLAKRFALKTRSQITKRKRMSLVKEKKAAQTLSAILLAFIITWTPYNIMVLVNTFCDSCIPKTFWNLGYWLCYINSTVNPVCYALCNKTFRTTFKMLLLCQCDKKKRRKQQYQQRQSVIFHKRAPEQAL
T2 sequence (P07550 whole entry): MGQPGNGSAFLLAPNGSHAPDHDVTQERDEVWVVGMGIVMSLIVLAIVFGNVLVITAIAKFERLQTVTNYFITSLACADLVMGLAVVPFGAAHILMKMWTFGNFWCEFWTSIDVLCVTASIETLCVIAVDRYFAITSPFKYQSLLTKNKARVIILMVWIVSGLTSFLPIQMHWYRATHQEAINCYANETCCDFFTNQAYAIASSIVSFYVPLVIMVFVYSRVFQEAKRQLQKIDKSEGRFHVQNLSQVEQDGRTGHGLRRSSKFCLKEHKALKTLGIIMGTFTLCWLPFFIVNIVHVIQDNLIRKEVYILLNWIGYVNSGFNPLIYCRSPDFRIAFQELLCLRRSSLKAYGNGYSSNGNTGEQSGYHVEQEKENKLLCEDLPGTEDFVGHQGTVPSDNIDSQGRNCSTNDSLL

Row | Compound | IC50 [1] [nM] | EC50 [2] [nM] | β2 Intrinsic activity [2]
1 | Cc1nc(C(=O)N2CCOC3(CCN(Cc4ccc(CCNC[C@H](O)c5ccc(O)c6[nH]c(=O)ccc56)cc4)CC3)C2)cs1 [Example 17, (R)-8-Hydroxy-5-(1-hydroxy-2-(4-((4-(2-methylthiazole-4-carbonyl)-1-oxa-4,9-diazaspiro[5.5]undecan-9-yl)methyl)phenethylamino)ethyl)quinolin-2(1H)-one ditrifluoroacetate] | 50.1 | 50.1 | 0.5
2 | Cc1nc(C(=O)N2CCOC3(CCN(CCOc4cc(C)c(CNC[C@H](O)c5ccc(O)c6[nH]c(=O)sc56)cc4C)CC3)C2)cs1 [Example 18, (R)-7-(2-(2,5-Dimethyl-4-(2-(4-(2-methylthiazole-4-carbonyl)-1-oxa-4,9-diazaspiro[5.5]undecan-9-yl)ethoxy)benzylamino)-1-hydroxyethyl)-4-hydroxybenzo[d]thiazol-2(3H)-one ditrifluoroacetate] | 2.51 | 63.1 | 1
3 | Cc1nc(C(=O)N2CCOC3(CCN(Cc4cc(F)cc(CCNC[C@H](O)c5ccc(O)c6[nH]c(=O)sc56)c4)CC3)C2)cs1 [Example 19, (R)-7-(2-(3-Fluoro-5-((4-(2-methylthiazole-4-carbonyl)-1-oxa-4,9-diazaspiro[5.5]undecan-9-yl)methyl)phenethylamino)-1-hydroxyethyl)-4-hydroxybenzo[d]thiazol-2(3H)-one ditrifluoroacetate] | 1.58 | 3.16 | 0.9
4 | Cc1ccc(C(=O)N2CCOC3(CCN(CCc4cccc(CNC[C@H](O)c5ccc(O)c6[nH]c(=O)sc56)c4)CC3)C2)s1 [Example 20, (R)-4-Hydroxy-7-(1-hydroxy-2-(3-(2-(4-(5-methylthiophene-2-carbonyl)-1-oxa-4,9-diazaspiro[5.5]undecan-9-yl)ethyl)benzylamino)ethyl)benzo[d]thiazol-2(3H)-one ditrifluoroacetate] | 31.6 | 200 | 0.8
5 | Cc1nc(C(=O)N2CCOC3(CCN(CCc4ccc(CNC[C@H](O)c5ccc(O)c6[nH]c(=O)sc56)s4)CC3)C2)cs1 [Example 21, (R)-4-Hydroxy-7-(1-hydroxy-2-((5-(2-(4-(2-methylthiazole-4-carbonyl)-1-oxa-4,9-diazaspiro[5.5]undecan-9-yl)ethyl)thiophen-2-yl)methylamino)ethyl)benzo[d]thiazol-2(3H)-one ditrifluoroacetate] | 1 | 200 | 0.5
6 | CC(C)c1nc(C(=O)N2CCOC3(CCN(Cc4cccc(CCNC[C@H](O)c5ccc(O)c6[nH]c(=O)sc56)c4)CC3)C2)cs1 [Example 22, (R)-4-Hydroxy-7-O-hydroxy-2-(3-((4-(2-isopropylthiazole-4-carbonyl)-1-oxa-4,9-diazaspiro[5.5]undecan-9-yl)methyl)phenethylamino)ethyl)benzo[d]thiazol-2(3H)-one ditrifluoroacetate] | 0.126 | 10 | 0.9
7 | CC(C)c1nc(C(=O)N2CCOC3(CCN(Cc4cccc(CCNC[C@H](O)c5ccc(O)c6[nH]c(=O)ccc56)c4)CC3)C2)cs1 [Example 23, (R)-8-Hydroxy-5-(1-hydroxy-2-(3-((4-(2-isopropylthiazole-4-carbonyl)-1-oxa-4,9-diazaspiro[5.5]undecan-9-yl)methyl)phenethylamino)ethyl)quinolin-2(1H)-one ditrifluoroacetate] | 0.251 | 15.8 | 0.9
8 | Cc1nc(C(=O)N2CCOC3(CCN(CCOc4cccc(CCNC[C@H](O)c5ccc(O)c6[nH]c(=O)sc56)c4)CC3)C2)cs1 [Example 24, (R)-4-Hydroxy-7-(1-hydroxy-2-(3-(2-(4-(2-methylthiazole-4-carbonyl)-1-oxa-4,9-diazaspiro[5.5]undecan-9-yl)ethoxy)phenethylamino)ethyl)benzo[d]thiazol-2(3H)-one ditrifluoroacetate] | 25.1 | 5.01 | 1
9 | O=C(c1csc(C(F)(F)F)n1)N1CCOC2(CCN(Cc3cccc(CCNC[C@H](O)c4ccc(O)c5[nH]c(=O)ccc45)c3)CC2)C1 [Example 25, (R)-8-Hydroxy-5-(1-hydroxy-2-(3-((4-(2-(trifluoromethyl)thiazole-4-carbonyl)-1-oxa-4,9-diazaspiro[5.5]undecan-9-yl)methyl)phenethylamino)ethyl)quinolin-2(1H)-one ditrifluoroacetate] | 1 | 15.8 | 0.8
10 | O=C(c1csc(C(F)(F)F)n1)N1CCOC2(CCN(Cc3cccc(CCNC[C@H](O)c4ccc(O)c5[nH]c(=O)sc45)c3)CC2)C1 [Example 26, (R)-4-Hydroxy-7-(1-hydroxy-2-(3-((4-(2-(trifluoromethyl)thiazole-4-carbonyl)-1-oxa-4,9-diazaspiro[5.5]undecan-9-yl)methyl)phenethylamino)ethyl)benzo[d]thiazol-2(3H)-one ditrifluoroacetate] | 0.631 | 12.6 | 0.8
11 | Cc1ccc(C(=O)N2CCOC3(CCN(Cc4cc(CCNC[C@H](O)c5ccc(O)c6[nH]c(=O)sc56)cs4)CC3)C2)s1 [Example 27, (R)-4-Hydroxy-7-(1-hydroxy-2-(2-(5-((4-(5-methylthiophene-2-carbonyl)-1-oxa-4,9-diazaspiro[5.5]undecan-9-yl)methyl)thiophen-3-yl)ethylamino)ethyl)benzo[d]thiazol-2(3H)-one ditrifluoroacetate] | 2.51 | 1.26 | 1
12 | Cc1nc(C(=O)N2CCOC3(CCN(Cc4cc(F)cc(CCNC[C@H](O)c5ccc(O)c6[nH]c(=O)ccc56)c4)CC3)C2)cs1 [Example 28, (R)-5-(2-(3-Fluoro-5-((4-(2-methylthiazole-4-carbonyl)-1-oxa-4,9-diazaspiro[5.5]undecan-9-yl)methyl)phenethylamino)-1-hydroxyethyl)-8-hydroxyquinolin-2(1H)-one ditrifluoroacetate] | 2.51 | 10 | 1
13 | Cc1ccc(C(=O)N2CCOC3(CCN(Cc4cc(CCNC[C@H](O)c5ccc(O)c6[nH]c(=O)sc56)ccc4F)CC3)C2)s1 [Example 29, (R)-7-(2-(4-Fluoro-3-((4-(5-methylthiophene-2-carbonyl)-1-oxa-4,9-diazaspiro[5.5]undecan-9-yl)methyl)phenethylamino)-1-hydroxyethyl)-4-hydroxybenzo[d]thiazol-2(3H)-one ditrifluoroacetate] | 3.98 | 1.58 | 1
14 | COC(=O)c1ccc(C(=O)N2CCOC3(CCN(Cc4cccc(CCNC[C@H](O)c5ccc(O)c6[nH]c(=O)sc56)c4)CC3)C2)s1 [Example 30, (R)-methyl 5-(9-(3-(2-(2-hydroxy-2-(4-hydroxy-2-oxo-2,3-dihydrobenzo[d]thiazol-7-yl)ethylamino)ethyl)benzyl)-1-oxa-4,9-diazaspiro[5.5]undecane-4-carbonyl)thiophene-2-carboxylate ditrifluoroacetate] | 15.8 | 2.51 | 0.9
